According to publication PMC10925993, “6-Aryl-4-cycloamino-1,3,5-triazine-2-amines: synthesis, antileukemic activity, and 3D-QSAR modelling” (RSC Advances, 2024):
Read-outs that look alike come from different tables or passages of the source.

Key:
Jurkat T cells [1] = assay: Inhibition of Jurkat T cell growth (GI50), MTS assay; type: cell-based; details: Homo sapiens
Protocol: These compounds were selected for further testing to estimate their 50% growth inhibition (GI50) value. Standard antileukemic drugs mercaptopurine, methotrexate and cytarabine were chosen as positive controls.
(§1) An MTS (3-(4,5-dimethylthiazol-2-yl)-5-(3-carboxymethoxyphenyl)-2-(4-sulfophenyl)-2H-tetrazolium inner salt) assay[20] was used to assess the leukemic cell viability. Jurkat T cells (human leukemic T cell, clone E6-1) from American Type Culture Collection (ATCC) were cultured in RPMI-1640 medium (Nacalai Tesque, Japan) supplemented with 10% v/v fetal bovine serum (FBS) (Biosera, France). The cells were maintained at 37 °C in a humidified 5% CO2 incubator (Thermo Fisher, USA). A total of 2 × 10^3 cells per 100 μL cell culture media were seeded into each well of a 96-well plate and incubated for 24 h. Then, tested compounds or reference drugs [6-mercaptopurine (Merck Millipore, Germany), methotrexate (Merck Millipore, Germany) and cytarabine (Merck Millipore, Germany)] were added, followed by incubation for 72 h. After that, a mixture of MTS (Sigma Aldrich, USA) and phenazine methosulfate (PMS) (Nacalai Tesque, Japan) were added to each well, followed by another incubation for 1 h to 4 h at 37 °C. The absorbance in each well was measured at 490 nm using a microplate reader (Tecan NanoQuant Infinite M200 Pro, Austria). The percentage of cell viability was estimated by comparing absorbance in wells with the treated and untreated (vehicle control) cells using the following formula: ODtreated/ODuntreated × 100%. All experiments were performed in triplicate and repeated in three independent experiments. The GI50 values were calculated using sigmoidal concentration-response curves generated by the GraphPad Prism 8 program.[21]

Jurkat T cells [2] = assay: Antiproliferative screening at 10 μM, MTS assay; type: cell-based, human; details: for viability at 10 µM: Homo sapiens, Jurkat T cells, 72 h after treatment, MTS, mean of three independent experiments, read-out: Cell viability (%); for Antiproliferative activity against Jurkat T cells (in words): screening concentration 10 μM, 72 h
Protocol: The Jurkat T cell line was chosen for its reliability as a model for chemotherapeutic studies, particularly in T-cell leukemia.[13]
as §1, with “Jurkat T cells (human leukemic T cell, clone E6-1) from American Type Culture Collection (ATCC) were cultured in RPMI-1640 medium (Nacalai Tesque, Japan) supplemented with 10% v/v fetal bovine serum (FBS) (Biosera, France). The cells were maintained at 37 °C in a humidified 5% CO2 incubator (Thermo Fisher, USA).” left out, “After that, a mixture of MTS (Sigma Aldrich, USA) and phenazine methosulfate (PMS) (Nacalai Tesque, Japan) were added to each well, followed by another incubation for 1 h to 4 h at 37 °C.” left out

[3] = GI50 against Jurkat T cells converted to negative logarithmic scale, read-out: Experimental pGI50 (converted)
[4] = concentration required to inhibit Jurkat T cell growth by 50%, 72 h, MTS, mean of three independent experiments, read-out: GI50 ± SEM

SMILES | GI50 (Jurkat T cells [1]; [3]) | GI50 (Jurkat T cells [1]; [4]) | melting point | viability at 10 µM (Jurkat T cells [2]) | Antiproliferative activity against Jurkat T cells (in words) (Jurkat T cells [2])
Nc1nc(-c2cccc(Oc3ccccc3)c2)nc(N2CCCCC2)n1 [9{2,13}, 4-Piperidino-6-(3-phenoxyphenyl)-1,3,5-triazine-2-amine] | 6.92 µM | 6.88 ± 1.22 µM | 125 to 126 °C | 10% | effectively inhibited Jurkat T cell growth
CN1CCN(c2nc(N)nc(-c3ccc(N(C)C)cc3)n2)CC1 [9{4,8}, 6-[4-(N,N-Dimethylamino)phenyl]-4-(4-methylpiperazino)-1,3,5-triazine-2-amine] | – | – | 244 to 245 °C | 99% | –
COc1ccc(-c2nc(N)nc(N3CCN(C)CC3)n2)cc1 [9{4,9}, 6-(4-Methoxyphenyl)-4-(4-methylpiperazino)-1,3,5-triazine-2-amine] | – | – | 196 to 197 °C | 100% | –
CN1CCN(c2nc(N)nc(-c3cccc([N+](=O)[O-])c3)n2)CC1 [9{4,10}, 4-(4-Methylpiperazino)-6-(3-nitrophenyl)-1,3,5-triazine-2-amine] | – | – | 226 to 227 °C | 100% | –
CN1CCN(c2nc(N)nc(-c3cccc(OCc4ccccc4)c3)n2)CC1 [9{4,14}, 6-[3-(Benzyloxy)phenyl]-4-(4-methylpiperazino)-1,3,5-triazine-2-amine] | – | – | 117 to 118 °C | 73% | –
CN1CCN(c2nc(N)nc(-c3ccc(OCc4ccccc4)cc3)n2)CC1 [9{4,15}, 6-[4-(Benzyloxy)phenyl]-4-(4-methylpiperazino)-1,3,5-triazine-2-amine] | – | – | 191 to 192 °C | 74% | –
COc1cc(-c2nc(N)nc(N3CCN(C)CC3)n2)cc(OC)c1OC [9{4,17}, 6-(3,4,5-Trimethoxyphenyl)-4-(4-methylpiperazino)-1,3,5-triazine-2-amine] | – | – | 234 to 235 °C | 100% | –
Nc1nc(-c2ccc(OCc3ccccc3)cc2)nc(N2CCc3ccccc3C2)n1 [9{6,15}, 6-(4-(Benzyloxy)phenyl)-4-(3,4-dihydroisoquinolin-2(1H)-yl)-1,3,5-triazine-2-amine] | – | – | 143 to 144 °C | 59% | –
Nc1nc(-c2cccs2)nc(N2CCc3ccccc3C2)n1 [9{6,18}, 4-(3,4-Dihydroisoquinolin-2(1H)-yl)-6-(2-thienyl)-1,3,5-triazine-2-amine] | – | – | 170 to 171 °C | 78% | inactive against Jurkat T cells
COc1ccc(-c2nc(N)nc(N3CCc4ccccc43)n2)cc1 [9{7,9}, 6-(4-Methoxyphenyl)-4-(indolin-1-yl)-1,3,5-triazine-2-amine] | – | – | 219 to 220 °C | 85% | –
Nc1nc(-c2ccc(C(F)(F)F)cc2)nc(N2CCc3ccccc32)n1 [9{7,11}, 6-[4-(Trifluoromethyl)phenyl]-4-(indolin-1-yl)-1,3,5-triazine-2-amine] | – | – | 227 to 228 °C | 53% | –
Nc1nc(-c2ccc(OC(F)(F)F)cc2)nc(N2CCc3ccccc32)n1 [9{7,12}, 6-[4-(Trifluoromethoxy)phenyl]-4-(indolin-1-yl)-1,3,5-triazine-2-amine] | – | – | 195 to 196 °C | 73% | –
COc1ccc(-c2nc(N)nc(N3CCc4ccccc43)n2)cc1OC [9{7,16}, 6-(3,4-Dimethoxyphenyl)-4-(indolin-1-yl)-1,3,5-triazine-2-amine] | – | – | 183 to 184 °C | 67% | –
S=c1[nH]cnc2nc[nH]c12 [Mercaptopurine, mercaptopurine, reference compound] | – | 11.1 ± 4.89 µM | – | – | –

Now from value to compound, other results behind:

GI50 (Jurkat T cells [1]; [3]) | GI50 (Jurkat T cells [1]; [4]) | melting point | SMILES | viability at 10 µM (Jurkat T cells [2]) | Antiproliferative activity against Jurkat T cells (in words) (Jurkat T cells [2])
10.7 µM | 10.8 ± 0.13 µM | 136 to 137 °C | Nc1nc(-c2ccc(OC(F)(F)F)cc2)nc(N2CCCCC2)n1 [9{2,12}, 6-[4-(Trifluoromethoxy)phenyl]-4-piperidino-1,3,5-triazine-2-amine] | 12% | effectively inhibited Jurkat T cell growth
7.76 µM | 7.68 ± 0.11 µM | 157 to 158 °C | Nc1nc(-c2cccc(OCc3ccccc3)c2)nc(N2CCCCC2)n1 [9{2,14}, 6-[3-(Benzyloxy)phenyl]-4-piperidino-1,3,5-triazine-2-amine] | 8% | effectively inhibited Jurkat T cell growth
4.47 µM | 4.51 ± 0.15 µM | 170 to 171 °C | CC1CCN(c2nc(N)nc(-c3ccc(C(F)(F)F)cc3)n2)CC1 [9{3,11}, 6-[4-(Trifluoromethyl)phenyl]-4-(4-methylpiperidino)-1,3,5-triazine-2-amine] | 11% | effectively inhibited Jurkat T cell growth
3.24 µM | 3.23 ± 0.88 µM | 152 to 153 °C | CC1CCN(c2nc(N)nc(-c3ccc(OC(F)(F)F)cc3)n2)CC1 [9{3,12}, 6-[4-(Trifluoromethoxy)phenyl]-4-(4-methylpiperidino)-1,3,5-triazine-2-amine] | 5% | effectively inhibited Jurkat T cell growth
28.2 µM | 28.2 ± 1.03 µM | 155 to 156 °C | CC1CCN(c2nc(N)nc(-c3cccs3)n2)CC1 [9{3,18}, 4-(4-Methylpiperidino)-6-(2-thienyl)-1,3,5-triazine-2-amine] | 35% | –
– | – | 220 to 221 °C | Cc1ccc(-c2nc(N)nc(N3CCN(C)CC3)n2)cc1 [9{4,6}, 6-(4-Methylphenyl)-4-(4-methylpiperazino)-1,3,5-triazine-2-amine] | 100% | –
21.9 µM | 21.8 ± 1.1 µM | – | CN1CCN(c2nc(N)nc(-c3ccc(C(C)(C)C)cc3)n2)CC1 [9{4,7}, 6-[4-(tert-Butyl)phenyl]-4-(4-methylpiperazino)-1,3,5-triazine-2-amine] | 16% | effectively inhibited Jurkat T cell growth
– | – | 194 to 195 °C | CN1CCN(c2nc(N)nc(-c3ccc(C(F)(F)F)cc3)n2)CC1 [9{4,11}, 6-[4-(Trifluoromethyl)phenyl]-4-(4-methylpiperazino)-1,3,5-triazine-2-amine] | 100% | –
– | – | 194 to 195 °C | CN1CCN(c2nc(N)nc(-c3ccc(OC(F)(F)F)cc3)n2)CC1 [9{4,12}, 6-[4-(Trifluoromethoxy)phenyl]-4-(4-methylpiperazino)-1,3,5-triazine-2-amine] | 100% | –
– | – | 223 to 224 °C | COc1ccc(-c2nc(N)nc(N3CCN(C)CC3)n2)cc1OC [9{4,16}, 6-(3,4-Dimethoxyphenyl)-4-(4-methylpiperazino)-1,3,5-triazine-2-amine] | 100% | –
1.95 µM | 1.95 ± 0.25 µM | – | Nc1nc(-c2ccccc2)nc(N2CCc3ccccc3C2)n1 [9{6,1}] | 12% | –
3.31 µM | 3.3 ± 0.65 µM | 183 to 184 °C | Nc1nc(-c2ccc(Cl)cc2)nc(N2CCc3ccccc3C2)n1 [9{6,4}, 6-(4-Chlorophenyl)-4-(3,4-dihydroisoquinolin-2(1H)-yl)-1,3,5-triazine-2-amine] | 2% | –
– | – | 201 to 202 °C | CN(C)c1ccc(-c2nc(N)nc(N3CCc4ccccc4C3)n2)cc1 [9{6,8}, 6-[4-(N,N-Dimethylamino)phenyl]-4-(3,4-dihydroisoquinolin-2(1H)-yl)-1,3,5-triazine-2-amine] | 100% | –
– | – | 198 to 199 °C | COc1cc(-c2nc(N)nc(N3CCc4ccccc4C3)n2)cc(OC)c1OC [9{6,17}, 6-(3,4,5-Trimethoxyphenyl)-4-(3,4-dihydroisoquinolin-2(1H)-yl)-1,3,5-triazine-2-amine] | 96% | –
– | 0.29 ± 0.01 µM | – | Nc1ccn([C@@H]2O[C@H](CO)[C@@H](O)[C@@H]2O)c(=O)n1 [Cytarabine, cytarabine, reference compound] | – | –
